Reference: patent US20250304623A1, “PEPTIDES FOR INTRACELLULAR DELIVERY” (UNIVERSIDADE DE SANTIAGO DE COMPOSTELA, priority 2022, published 2025)
*: point of attachment. NHNH2 = NN*

Tests used:
Type in all cases: cell-based
ARPE19 cells = test: RLuc pDNA delivery, robotic library screening, ARPE19
HCT116 cells = test: RLuc pDNA delivery, robotic library screening, HCT116
[1] = system: A549 cells expressing EGFP; test: EGFP-targeting siRNA delivery (GFP silencing vs siMOCK), A549; settings: for percentage of GFP-silencing relative to siMOCK: A549 cells
[2] = system: ARPE19 cells expressing EGFP; test: EGFP-targeting siRNA delivery (GFP silencing vs siMOCK), ARPE19
In short: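 This siRNA delivery assay used stably EGFP-expressing cells seeded a day ahead in 96-well plates. siGFP and amphiphile were combined in DMEM at a constant 30 nM siRNA, incubated 30 min at room temperature, then applied for 4 h before switching to fresh DMEM with 10% FBS. After 72 h, a plate reader measured fluorescence decrease relative to non-targeting siMOCK, subtracting untreated background.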

[3] = system: HepG2 cells expressing EGFP; test: EGFP-targeting siRNA delivery (GFP silencing vs siMOCK), HepG2
In short: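 After 72 h, a plate reader measured EGFP fluorescence in HepG2 EGFP cells transfected with amphiphile/siRNA complexes (30 nM siGFP). Silencing was expressed as percent fluorescence decrease relative to cells given non-targeting siMOCK, with untreated-cell background subtracted. Triplicate means were reported, and Lipofectamine RNAiMAX served as a comparison.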

[4] = system: ARPE19 cells expressing EGFP; test: Cas9-RNP delivery against EGFP (gene editing, plate reader), ARPE19
In short: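 EGFP-expressing cells, generated by stable transfection with EGFP pDNA and G-418 selection, were plated in 96-well plates at 50,000 cell/mL (100 μL/w) in DMEM+10% FBS+1% Gln-Abt. Cas9-RNP targeting EGFP was complexed with amphiphile for 30 min, applied for 4 h at 50 nM RNP, and EGFP fluorescence was read on a plate reader after 72 h.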

[5] = system: HepG2 cells expressing EGFP; test: Cas9-RNP delivery against EGFP (gene editing, plate reader), HepG2
In short: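 Gene editing in EGFP-expressing HepG2 cells was estimated as the percentage drop in GFP fluorescence, measured in triplicate on a plate reader 72 h after Cas9-RNP delivery with amphiphiles. The RNP was made from annealed crRNA/tracrRNA plus 4 μM Cas9 and complexed with amphiphile before a 4 h exposure. Background from untreated control cells was subtracted.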

Ac-RRHK*RLK*RRLK*RL-NH2 (Ac-RRHK(NHNH2)RLK(NHNH2)RRLK(NHNH2)RL-NH2; not fully specified; printed as Ac-RRHK*RLK*RRLK*RL-NH2; also: K*4,K*7,K*11: native or modified lysine (ε-amide to a linker)) [13(Leu-His)]
mean luminescent intensity (RLuc pDNA) (ARPE19 cells; Myristoleyl, 5 μM): 6946 RLU | mean luminescent intensity (RLuc pDNA) (ARPE19 cells; Myristoleyl, 10 μM): 72 RLU | mean luminescent intensity (RLuc pDNA) (ARPE19 cells; Myristoleyl, 15 μM): 102 RLU | mean luminescent intensity (RLuc pDNA) (ARPE19 cells; Palmitoleyl, 5 μM): 8615 RLU | mean luminescent intensity (RLuc pDNA) (ARPE19 cells; Petroselinyl, 5 μM): 4661 RLU | mean luminescent intensity (RLuc pDNA) (HCT116 cells; Myristoleyl, 5 μM): 76409 RLU | mean luminescent intensity (RLuc pDNA) (HCT116 cells; Myristoleyl, 15 μM): 429 RLU | mean luminescent intensity (RLuc pDNA) (HCT116 cells; Palmitoleyl, 5 μM): 123206 RLU | mean luminescent intensity (RLuc pDNA) (HCT116 cells; Petroselinyl, 5 μM): 116309 RLU | mean luminescent intensity (RLuc pDNA) (HCT116 cells; Petroselinyl, 10 μM): 33439 RLU | mean luminescent intensity (RLuc pDNA) (HCT116 cells; Petroselinyl, 15 μM): 4972 RLU | siRNA % fluorescence reduction vs siMOCK ([1]; A549, amphiphile 5 μM, hydrophobic tail): 76% | percentage of GFP-silencing relative to siMOCK ([1]; Dodecanal, 10 μM): 10% | percentage of GFP-silencing relative to siMOCK ([1]; Dodecanal, 15 μM): 55% | percentage of GFP-silencing relative to siMOCK ([1]; Myristoleyl, 10 μM): 10% | percentage of GFP-silencing relative to siMOCK ([1]; Myristoleyl, 15 μM): 14% | percentage of GFP-silencing relative to siMOCK ([1]; Oleyl, 5 μM): 29% | percentage of GFP-silencing relative to siMOCK ([1]; Oleyl, 10 μM): 20% | percentage of GFP-silencing relative to siMOCK ([1]; Oleyl, 15 μM): 17% | percentage of GFP-silencing relative to siMOCK ([1]; Palmitoleyl, 10 μM): 54% | percentage of GFP-silencing relative to siMOCK ([1]; Palmitoleyl, 15 μM): 50% | percentage of GFP-silencing relative to siMOCK ([1]; Petroselinyl, 10 μM): 38% | percentage of GFP-silencing relative to siMOCK ([1]; Petroselinyl, 15 μM): 76% | percentage of GFP-silencing relative to siMOCK ([2]; Dodecanal, 5 μM): 27% | percentage of GFP-silencing relative to siMOCK ([2]; Dodecanal, 10 μM): 31% | percentage of GFP-silencing relative to siMOCK ([2]; Dodecanal, 15 μM): 41% | percentage of GFP-silencing relative to siMOCK ([2]; Myristoleyl, 10 μM): 25% | percentage of GFP-silencing relative to siMOCK ([2]; Myristoleyl, 15 μM): 0% | percentage of GFP-silencing relative to siMOCK ([2]; Oleyl, 10 μM): 26% | percentage of GFP-silencing relative to siMOCK ([2]; Oleyl, 15 μM): 15% | percentage of GFP-silencing relative to siMOCK ([2]; Palmitoleyl, 5 μM): 46% | percentage of GFP-silencing relative to siMOCK ([2]; Palmitoleyl, 10 μM): 26% | percentage of GFP-silencing relative to siMOCK ([2]; Palmitoleyl, 15 μM): 24% | percentage of GFP-silencing relative to siMOCK ([2]; Petroselinyl, 10 μM): 34% | percentage of GFP-silencing relative to siMOCK ([2]; Petroselinyl, 15 μM): 13% | percentage of GFP-silencing relative to siMOCK ([3]; Dodecanal, 15 μM): 27% | percentage of GFP-silencing relative to siMOCK ([3]; Myristoleyl, 10 μM): −3% | percentage of GFP-silencing relative to siMOCK ([3]; Palmitoleyl, 10 μM): 12% | percentage of GFP-silencing relative to siMOCK ([3]; Palmitoleyl, 15 μM): 25% | percentage of GFP-silencing relative to siMOCK ([3]; Petroselinyl, 10 μM): 25% | percentage of GFP-silencing relative to siMOCK ([3]; Petroselinyl, 15 μM): 6% | percentage of gene editing, GFP fluorescence intensity decrease (% of reduction) ([4]; Oleyl, 10 μM): −6% | percentage of gene editing, GFP fluorescence intensity decrease (% of reduction) ([4]; Palmitoleyl, 10 μM): −13% | percentage of gene editing, GFP fluorescence intensity decrease (% of reduction) ([4]; Palmitoleyl, 15 μM): 6% | percentage of gene editing, GFP fluorescence intensity decrease (% of reduction) ([4]; Petroselinyl, 15 μM): 22% | percentage of gene editing, GFP fluorescence intensity decrease (% of reduction) ([5]; Dodecanal, 10 μM): −37% | percentage of gene editing, GFP fluorescence intensity decrease (% of reduction) ([5]; Myristoleyl, 10 μM): 11% | percentage of gene editing, GFP fluorescence intensity decrease (% of reduction) ([5]; Oleyl, 15 μM): −22% | percentage of gene editing, GFP fluorescence intensity decrease (% of reduction) ([5]; Palmitoleyl, 5 μM): −36% | percentage of gene editing, GFP fluorescence intensity decrease (% of reduction) ([5]; Palmitoleyl, 10 μM): 8% | percentage of gene editing, GFP fluorescence intensity decrease (% of reduction) ([5]; Palmitoleyl, 15 μM): 13% | percentage of gene editing, GFP fluorescence intensity decrease (% of reduction) ([5]; Petroselinyl, 5 μM): −7% | percentage of gene editing, GFP fluorescence intensity decrease (% of reduction) ([5]; Petroselinyl, 10 μM): 9% | percentage of gene editing, GFP fluorescence intensity decrease (% of reduction) ([5]; Petroselinyl, 15 μM): 14%
